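Values below derive from 48-hour exposures of cells grown in 96-well plates, with endpoints linearly interpolated between the two concentrations bracketing the appropriate inhibition level. GI50 = concentration required for 50% inhibition of growth.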 Active and inactive are the calls of the source. Cut-off read from the data, not from the text of the source: active = GI50 up to about 1.1 µM and inactive = higher.
Legend:
Test in all cases: NCI anticancer screen, dose series, 48 h
[1] = tested on: PC-3
[2] = tested on: HOP-92
[3] = tested on: SK-MEL-28
[4] = tested on: 786-0
[5] = tested on: COLO 205
[6] = tested on: HCT-15
[7] = tested on: SN12C
[8] = tested on: SNB-75
[9] = tested on: OVCAR-4
[10] = tested on: CCRF-CEM
[11] = tested on: UO-31
[12] = tested on: UACC-62
[13] = tested on: NCI-H226
[14] = tested on: IGROV-1
[15] = tested on: M14
[16] = tested on: TK-10
[17] = tested on: SK-OV-3
[18] = tested on: UACC-257
[19] = tested on: Hs-578T
[20] = tested on: HL-60
[21] = tested on: SW-620
[22] = tested on: OVCAR-8
[23] = tested on: NCI-H23
[24] = tested on: A549
[25] = tested on: MOLT-4
[26] = tested on: OVCAR-5
[27] = tested on: RXF 393
[28] = tested on: KM12
[29] = tested on: HCC 2998
[30] = tested on: SF-268
[31] = tested on: SK-MEL-2
[32] = tested on: LOX IMVI
[33] = tested on: HOP-62
[34] = tested on: MDA-MB-435
[35] = tested on: EKVX
[36] = tested on: OVCAR-3
[37] = tested on: SK-MEL-5
[38] = tested on: NCI-H522
[39] = tested on: Malme-3M
[40] = tested on: ACHN
[41] = tested on: MDA-MB-231
[42] = tested on: K562
[43] = tested on: SNB-19
[44] = tested on: NCI-H460
[45] = tested on: A498
[46] = tested on: T47D
[47] = tested on: BT-549
[48] = tested on: HT-29
[49] = tested on: HCT-116
[50] = tested on: NCI/ADR-RES
[51] = tested on: RPMI-8226
[52] = tested on: SF-295
[53] = tested on: MCF7
[54] = tested on: DU-145
[55] = tested on: MDA-N
[56] = tested on: U-251
[57] = tested on: CAKI-1
[58] = tested on: SF-539

Measured: GI50

Nc1nc(O)nc2c1ncn2C1OC(CO)C(O)C1O (configuration not stated)
28.4 µM: [6]
inactive: [1] 22.6 µM | [2] 57.1 µM | [3] > 100 µM | [4] 97.5 µM | [5] > 100 µM | [7] 33.1 µM | [8] 6.18 µM | [9] 37 µM | [10] 33 µM | [11] 49.9 µM | [12] > 100 µM | [13] 69.3 µM | [14] > 100 µM | [15] 39.9 µM | [16] 38.5 µM | [17] 40.2 µM | [18] > 100 µM | [19] > 100 µM | [20] 22 µM | [21] 50.7 µM | [22] 23.8 µM | [23] > 100 µM | [24] > 100 µM | [25] 26.1 µM | [26] > 100 µM | [27] 72.3 µM | [28] > 100 µM | [29] 25.7 µM | [30] > 100 µM | [31] 64.4 µM | [32] 38.8 µM | [33] > 100 µM | [34] 57.5 µM | [35] > 100 µM | [36] 52.7 µM | [37] > 100 µM | [38] > 100 µM | [39] > 100 µM | [40] 78.9 µM | [41] 38 µM | [42] 44.2 µM | [43] > 100 µM | [44] > 100 µM | [45] > 100 µM | [46] 25.1 µM | [47] > 100 µM | [48] > 100 µM | [49] 45 µM | [50] 22.6 µM | [51] 61.7 µM | [52] > 100 µM | [53] 29 µM | [54] 23.5 µM | [55] 46.5 µM | [56] > 100 µM | [57] 54 µM

CC1C2(C)OC(=N)C(C#N)(C(c3ccccc3)O2)C1(C#N)C#N (configuration not stated)
10.9 µM: [6]
inactive: [1] 22.8 µM | [2] 12.6 µM | [3] > 10 µM | [4] 21.2 µM | [5] 16.4 µM | [7] 16.6 µM | [8] > 100 µM | [10] 17.6 µM | [58] 20.3 µM | [11] 39.8 µM | [12] 24.4 µM | [13] > 100 µM | [14] 33.8 µM | [15] 13.9 µM | [16] 36 µM | [17] > 100 µM | [18] 25.2 µM | [19] 24.6 µM | [20] 16.6 µM | [21] > 10 µM | [22] 30.4 µM | [23] 28.2 µM | [24] > 100 µM | [25] 25.4 µM | [26] 25.5 µM | [27] 30.3 µM | [28] 51.5 µM | [29] 10.8 µM | [30] 25.5 µM | [31] 16.9 µM | [32] 17.2 µM | [34] 33.3 µM | [35] 21.4 µM | [36] 15.1 µM | [37] 16.7 µM | [39] 28.3 µM | [40] 38.1 µM | [41] 16.9 µM | [42] 25.1 µM | [43] 55.2 µM | [44] 12.6 µM | [45] 42.1 µM | [46] 20 µM | [47] 42.3 µM | [48] 18.1 µM | [49] 21.2 µM | [50] 42.9 µM | [52] 86.5 µM | [53] 21.2 µM | [54] 31.3 µM | [55] 18.2 µM | [56] 18.7 µM | [57] 13.7 µM

O=c1c2ccccc2nc(-c2ccc(Cl)cc2)n1O
9.55 µM: [6]
inactive: [1] 33.9 µM | [2] 15.6 µM | [4] 22.2 µM | [5] 34.6 µM | [7] 35.7 µM | [8] 38.2 µM | [9] 37 µM | [10] 14.1 µM | [58] 23.8 µM | [11] 2.2 µM | [12] 35.9 µM | [13] 15.5 µM | [14] 2.19 µM | [15] 26.4 µM | [16] 21.1 µM | [17] 28.2 µM | [18] 24.9 µM | [19] 76 µM | [20] 18.3 µM | [21] 33.7 µM | [22] 16.5 µM | [23] 48.4 µM | [24] 29.4 µM | [25] 17.9 µM | [26] 47.4 µM | [27] 26.7 µM | [28] 9.53 µM | [30] 18.8 µM | [33] 9.12 µM | [34] 26.5 µM | [35] 21.7 µM | [36] 40.2 µM | [37] 29.9 µM | [38] 15.3 µM | [40] 22.5 µM | [41] > 100 µM | [42] 22.9 µM | [43] 25.2 µM | [44] 11.1 µM | [45] 53.7 µM | [46] > 100 µM | [47] 27.3 µM | [48] 45.7 µM | [49] 29.7 µM | [50] 19.6 µM | [51] 26.9 µM | [52] 27.5 µM | [53] 20 µM | [54] 89.9 µM | [55] 35.6 µM | [56] 20.8 µM | [57] 15.2 µM
active: [32] 1.11 µM

C=CC[C@H](N=C(SC)SC)C(=O)N1C(=O)N(C)[C@@H](C)[C@H]1c1ccccc1
inactive: [1] 33.7 µM | [2] 23.3 µM | [3] 39.5 µM | [4] 46.6 µM | [5] 28 µM | [7] 40.7 µM | [8] 36.4 µM | [9] 29.9 µM | [10] 22.3 µM | [58] 36.4 µM | [11] 47.9 µM | [12] 35.1 µM | [13] 31.6 µM | [15] 34.9 µM | [16] 44.2 µM | [17] 75 µM | [18] 29.2 µM | [19] 21.3 µM | [20] 34 µM | [21] 30.1 µM | [22] 51.1 µM | [23] 39.3 µM | [24] 35.3 µM | [25] 26.4 µM | [26] 54.6 µM | [27] 33.8 µM | [28] 36.2 µM | [29] 27.9 µM | [30] 26.5 µM | [31] 30 µM | [32] 72.8 µM | [33] 46.5 µM | [34] 33.8 µM | [35] 31.3 µM | [36] 29.4 µM | [37] 20 µM | [38] 14.9 µM | [39] 51.6 µM | [40] 49.4 µM | [41] > 100 µM | [42] 29.6 µM | [43] 58.7 µM | [44] 34.1 µM | [45] 56.8 µM | [46] 40.5 µM | [47] 34.6 µM | [48] 38.6 µM | [49] 33 µM | [50] 29.5 µM | [52] 40.3 µM | [53] 34.8 µM | [54] 37.5 µM | [55] 33.8 µM | [56] 40.8 µM | [57] 25.1 µM
49.8 µM: [6]

Nc1nc(N)c(NC(=O)CCCO)c(=O)[nH]1
inactive: [1] > 100 µM | [2] > 100 µM | [4] > 100 µM | [5] > 100 µM | [7] > 100 µM | [8] > 100 µM | [9] > 100 µM | [10] > 100 µM | [58] > 100 µM | [11] > 100 µM | [12] > 100 µM | [13] > 100 µM | [14] > 100 µM | [15] > 100 µM | [16] > 100 µM | [17] > 100 µM | [18] > 100 µM | [19] > 100 µM | [21] > 100 µM | [22] > 100 µM | [23] > 100 µM | [24] > 100 µM | [25] > 100 µM | [26] > 100 µM | [27] > 100 µM | [28] > 100 µM | [29] > 100 µM | [30] > 100 µM | [31] > 100 µM | [32] > 100 µM | [33] > 100 µM | [34] > 100 µM | [35] > 100 µM | [36] > 100 µM | [37] > 100 µM | [38] 67.1 µM | [39] > 100 µM | [40] > 100 µM | [41] > 100 µM | [42] > 100 µM | [43] > 100 µM | [44] > 100 µM | [45] > 100 µM | [46] > 100 µM | [47] > 100 µM | [48] > 100 µM | [49] > 100 µM | [50] > 100 µM | [51] > 100 µM | [52] > 100 µM | [53] > 100 µM | [54] > 100 µM | [55] > 100 µM | [56] > 100 µM | [57] > 100 µM
> 100 µM: [6]

— ChEMBL document CHEMBL1201862, “PubChem BioAssay data set” (2004)
